Where “and” joins values, the source holds several entries; their conditions need not be identical. Equal values may be shown once. Entries after “also recorded” stand apart in the source; their conditions may differ.
How the values were obtained:
[1] = tested on: M2e; parameters: species or system BALB/c mice; conditions: mouse, in vivo, sc
[2] = tested on: Influenza virus (A/PR8/8/34 strain, H1N1); format: in vivo, BALB/c mice; conditions: mouse, in vivo
[3] = tested on: M2e; parameters: species or system BALB/c mice; conditions: mouse, in vivo
[4] = tested on: M2e; parameters: species or system BALB/c mice; conditions: mouse, in vivo; remark: listed apart in the source

Sequence | anti-M2e antibody titer, comparison in words [1] | also measured
SLLTEVETPIRNEWGCRCNCDSCSD [M2eC2123] | increased anti-M2e antibody titer than M2eC21 | 
SLLTEVETPIRNEWCGCRCNCDCSCSCD [M2eC1621222324] | higher than that of M2eC162122 | 
SLLTEVETPIRNECWCGCRCNCDSSD [M2eC151621] | antibody titer comparable to M2e | 
SLLTEVETPIRNEWGCRCNCDCSCSCD [M2eC21222324] | higher than that of M2eC212223 | 
SLLTEVETPTRSEWECRCSCDCSCSD [swM2eC212223] |  | Survival rate [2]: 9/9 and 7/8; anti-M2e antibody titer immediately before challenge [3]: the highest; also recorded: high anti-M2e antibody titer
SLLTEVETPIRNEWGCRCNCCCDSSD [M2eC212121] | induced a high anti-M2e antibody titer | 
SLLTEVETPIRNEWCGCRCNCDCSSD [M2eC162122] | higher antibody titer than that of M2e | 
SLLTEVETPIRNEWGCRCNCDCSSD [M2eC2122] | increased anti-M2e antibody titer than M2eC21 | 
SLLTEVETPIRNEWCGCRCNCDCSCSD [M2eC16212223] | higher than that of M2eC162122 | 
SLLTEVETPIRNEWCGCRCNCDSSD [M2eC1621] | increased anti-M2e antibody titer than M2eC21 | 
SLLTEVETPIRNEWGCRCNCDCSCSD [M2eC212223] | higher antibody titer than that of M2e | anti-M2e antibody titer just before challenge [4]: could induce a high anti-M2e antibody titer

From patent US8883165B2, “Modified peptide vaccine derived from influenza M2” (The Chemo-Sero-Therapeutic Research Institute, priority 2009, dated 2014)
